Assay results as given in ChEMBL document CHEMBL5725801, “Fused heterocyclic compounds as CaM kinase inhibitors” (2018).
Several values for one entry are separate records, joined by “and”; a condition that tells them apart may be missing. Equal values may be shown once.

Test: CaMKII Cell-Based Activity: CaMKII activity in neonatal rat ventricular myocytes (NRVM) was measured by monitoring the phosphorylation level of phospholamban using high-content imaging. NRVMs were plated in a clear bottom 384-well plate in medium supplemented with 10% fetal bovine serum (FBS) and incubated at 37° C., 5% CO2 overnight. The medium was changed to a serum-free medium and compounds were dosed to the cells. The cells were incubated at 37° C., 5% CO2 for 4 hours and were then treated with 100 nM ATX-II (Alomone Labs) to activate CaMKII. 10 minutes after the addition of ATX-II, the cells were fixed with 4% formaldehyde followed by permeabilization with 0.1% triton X100. The fixed cells were stained with an anti-phospho-phospholamban primary antibody (Santa Cruz Biotechnology) and an Alexa488-labeled anti-rabbit IgG secondary antibody (Life Technologies Corporation) as well as Hoechst 33342 (Life Technologies Corporation). The cells were imaged using an ArrayScan VTI (Cellomics) and analyzed for cells containing a positive fluorescent signal at 485 nm, reported as % responder. The % responders were plotted against the compound concentration to determine the compounds EC50.

CCN(CC)CCNC(=O)c1ccnc(-c2cnn3ccc(-c4cccs4)nc23)c1
EC50: 17.1 nM

CCc1cc(C(=O)NC[C@H](C)N(CC)CC)cc(-c2cnn3ccc(-c4cccs4)nc23)n1
EC50: 59.7 nM

CCN(CC)[C@@H](C)CNC(=O)c1ccnc(-c2cnn3ccc(-c4cccs4)nc23)c1
EC50: 21.4 nM

CC(C)C(N)CNC(=O)c1ccnc(-c2cnn3ccc(-c4ccccc4)nc23)c1 (configuration not stated)
EC50: 44.1 nM

C[C@@H](CNC(=O)c1ccnc(-c2cnn3ccc(-c4cccs4)nc23)c1)NCCO
EC50: 301 nM

NC[C@H]1CCCN1C(=O)c1ccnc(-c2cnn3ccc(-c4cccs4)nc23)c1
EC50: 58.3 nM

O=C(NC[C@@H]1CCCN1)c1ccnc(-c2cnn3ccc(-c4cccs4)nc23)c1
EC50: 125 nM

CCN(CC)C(C)CNC(=O)c1ccnc(-c2cnn3ccc(-c4ccccc4)nc23)c1 (configuration not stated)
EC50: 103 nM

CC(C)NC(CNC(=O)c1ccnc(-c2cnn3ccc(-c4ccccc4)nc23)c1)C(C)C (configuration not stated)
EC50: 152 nM

CCC(CNC(=O)c1ccnc(-c2cnn3ccc(-c4cccs4)nc23)c1)NC(C)C (configuration not stated)
EC50: 60 nM

C[C@@H](CNC(=O)c1ccnc(-c2cnn3ccc(-c4cccs4)nc23)c1)NCCF
EC50: 95.2 nM

O=C(NCC1CCCCN1)c1ccnc(-c2cnn3ccc(-c4cccs4)nc23)c1 (configuration not stated)
EC50: 288 nM

O=C(c1ccnc(-c2cnn3ccc(-c4ccccc4)nc23)c1)N1CCCCC12CCCNC2 (configuration not stated)
EC50: 45.3 nM

C[C@@H](CNC(=O)c1ccnc(-c2cnn3ccc(-c4ccccc4)nc23)c1)NCc1ncccn1
EC50: 779 nM

O=C(c1ccnc(-c2cnn3ccc(-c4ccccc4)nc23)c1)N1CCC2CCNCC21 (configuration not stated)
EC50: 65.6 nM

CCN(CC)[C@@H](C)CNC(=O)c1ccnc(-c2cnn3ccc(-c4ccccc4)nc23)c1
EC50: 29 nM

N[C@H]1CCC[C@@H]1NC(=O)c1ccnc(-c2cnn3ccc(-c4ccccc4)nc23)c1
EC50: 287 nM

CN(C)CCNC(=O)c1ccnc(-c2cnn3ccc(-c4ccccc4)nc23)c1
EC50: 320 nM

O=C(NC[C@@H]1C[C@H](F)CN1)c1ccnc(-c2cnn3ccc(-c4cccs4)nc23)c1
EC50: 386 nM

CCN(CC)[C@@H](CO)CNC(=O)c1ccnc(-c2cnn3ccc(-c4ccccc4)nc23)c1
EC50: 61.9 nM

CC[C@@]1(CNC(=O)c2ccnc(-c3cnn4ccc(-c5ccccc5)nc34)c2)CCCN1
EC50: 279 nM

CCN(CC)[C@@H](C)CNC(=O)c1cc(Cl)nc(-c2cnn3ccc(-c4cccs4)nc23)c1
EC50: 69.3 nM

CCC[C@@]1(CNC(=O)c2ccnc(-c3cnn4ccc(-c5cccs5)nc34)c2)CCCN1
EC50: 99.2 nM

CC[C@]1(CNC(=O)c2ccnc(-c3cnn4ccc(-c5ccccc5)nc34)c2)CCCN1
EC50: 143 nM

CCCN[C@@H](C)CNC(=O)c1ccnc(-c2cnn3ccc(-c4cccs4)nc23)c1
EC50: 65.2 nM

C[C@H](N)CNC(=O)c1ccnc(-c2cnn3ccc(-c4cccs4)nc23)c1
EC50: 62.2 nM

C[C@@H](CNC(=O)c1ccnc(-c2cnn3ccc(-c4cccs4)nc23)c1)NCC1CC1
EC50: 15.1 nM

O=C(c1ccnc(-c2cnn3ccc(-c4cccs4)nc23)c1)N1C2CCNCC1CC2 (configuration not stated)
EC50: 187 nM

O=C(NC[C@]1(CC2CC2)CCCN1)c1ccnc(-c2cnn3ccc(-c4cccs4)nc23)c1
EC50: 66.9 nM

CCCC(N)CNC(=O)c1ccnc(-c2cnn3ccc(-c4ccccc4)nc23)c1 (configuration not stated)
EC50: 11.8 nM

CC(CN)NC(=O)c1ccnc(-c2cnn3ccc(-c4ccccc4)nc23)c1 (configuration not stated)
EC50: 175 nM

CCN(CC)C(CNC(=O)c1ccnc(-c2cnn3ccc(-c4ccccc4)nc23)c1)C(C)C (configuration not stated)
EC50: 37.2 nM

O=C(NC[C@@H]1CCN1)c1ccnc(-c2cnn3ccc(-c4cccs4)nc23)c1
EC50: 132 nM

CCN[C@@H](C)CNC(=O)c1ccnc(-c2cnn3ccc(-c4cccs4)nc23)c1
EC50: 33 nM

CCC(N)CNC(=O)c1ccnc(-c2cnn3ccc(-c4ccccc4)nc23)c1 (configuration not stated)
EC50: 80.9 nM

NC[C@H]1CC(F)(F)CN1C(=O)c1ccnc(-c2cnn3ccc(-c4cccs4)nc23)c1
EC50: 316 nM

O=C(c1ccnc(-c2cnn3ccc(-c4cccs4)nc23)c1)N1CCC[C@@H]2CCNC[C@@H]21
EC50: 80.8 nM

CCN(CC(F)F)[C@@H](C)CNC(=O)c1ccnc(-c2cnn3ccc(-c4cccs4)nc23)c1
EC50: 197 nM

O=C(c1ccnc(-c2cnn3ccc(-c4cccs4)nc23)c1)N1CC2CCC(C1)NC2 (configuration not stated)
EC50: 95.4 nM

CCCC(CNC(=O)c1ccnc(-c2cnn3ccc(-c4ccccc4)nc23)c1)N(CC)CC (configuration not stated)
EC50: 31.2 nM

N[C@H]1CCCN(C(=O)c2ccnc(-c3cnn4ccc(-c5cccs5)nc34)c2)C1
EC50: 217 nM

CCN(CC)[C@@H](C)CNC(=O)c1cc(-c2cnn3ccc(-c4cccs4)nc23)nc(C(C)C)c1
EC50: 80.4 nM

CCC(C)N[C@@H](C)CNC(=O)c1ccnc(-c2cnn3ccc(-c4ccccc4)nc23)c1 (some centres not stated)
EC50: 25.3 nM

CCN(CC)C(C)CNC(=O)c1ccnc(-c2cnn3ccc(-c4cccs4)nc23)c1 (configuration not stated)
EC50: 35.4 nM

CC1(C)CNC1CNC(=O)c1ccnc(-c2cnn3ccc(-c4ccccc4)nc23)c1 (configuration not stated)
EC50: 166 nM

CC(C)C(CNC(=O)c1ccnc(-c2cnn3ccc(-c4ccccc4)nc23)c1)NCC1CC1 (configuration not stated)
EC50: 88.8 nM

C[C@@H](NC(=O)c1ccnc(-c2cnn3ccc(-c4cccs4)nc23)c1)[C@@H]1CCCN1
EC50: 518 nM

O=C(c1ccnc(-c2cnn3ccc(-c4ccccc4)nc23)c1)N1CCCC[C@@H]1[C@@H]1CCCN1
EC50: 6.81 nM

O=C(c1ccnc(-c2cnn3ccc(-c4ccccc4)nc23)c1)N1CCC2CNCC21 (configuration not stated)
EC50: 48.5 nM

O=C(c1ccnc(-c2cnn3ccc(-c4ccccc4)nc23)c1)N1C2CCCC1CNCC2 (configuration not stated)
EC50: 51.6 nM

CCCNC(CC)CNC(=O)c1ccnc(-c2cnn3ccc(-c4ccccc4)nc23)c1 (configuration not stated)
EC50: 8.15 nM

CCN[C@H](CNC(=O)c1ccnc(-c2cnn3ccc(-c4ccccc4)nc23)c1)COc1ncccn1
EC50: 45.9 nM

O=C(NCC1CCCCCN1)c1ccnc(-c2cnn3ccc(-c4cccs4)nc23)c1 (configuration not stated)
EC50: 347 nM

CCC(CNC(=O)c1ccnc(-c2cnn3ccc(-c4ccccc4)nc23)c1)NCC1CC1 (configuration not stated)
EC50: 76.7 nM

CCN[C@@H](CO)CNC(=O)c1ccnc(-c2cnn3ccc(-c4ccccc4)nc23)c1
EC50: 243 nM

CCNC(C)(C)CNC(=O)c1ccnc(-c2cnn3ccc(-c4ccccc4)nc23)c1
EC50: 67.4 nM

O=C(c1ccnc(-c2cnn3ccc(-c4ccccc4)nc23)c1)N1CCCC12CCCNC2 (configuration not stated)
EC50: 8.2 nM

CCN(CCN)C(=O)c1ccnc(-c2cnn3ccc(-c4ccccc4)nc23)c1
EC50: 169 nM

O=C(c1ccnc(-c2cnn3ccc(-c4cccs4)nc23)c1)N1CC2CCC[C@@H](C1)NC2
EC50: 54.3 nM

N[C@@H](CO)CNC(=O)c1ccnc(-c2cnn3ccc(-c4ccccc4)nc23)c1
EC50: 334 nM

N[C@H]1CCN(C(=O)c2ccnc(-c3cnn4ccc(-c5cccs5)nc34)c2)C1
EC50: 172 nM

C[C@@H]1CNCCN1C(=O)c1ccnc(-c2cnn3ccc(-c4cccs4)nc23)c1
EC50: 208 nM

CC(C)(N)CNC(=O)c1ccnc(-c2cnn3ccc(-c4ccccc4)nc23)c1
EC50: 110 nM

CC(C)N[C@@H](C)CNC(=O)c1ccnc(-c2cnn3ccc(-c4cccs4)nc23)c1
EC50: 166 nM

N[C@@H]1CCC[C@H]2CCCN(C(=O)c3ccnc(-c4cnn5ccc(-c6ccccc6)nc45)c3)[C@H]21
EC50: 71.7 nM

CN1CCC[C@H]1CNC(=O)c1ccnc(-c2cnn3ccc(-c4cccs4)nc23)c1
EC50: 173 nM

CCN[C@@H](C)CNC(=O)c1ccnc(-c2cnn3ccc(-c4ccccc4)nc23)c1
EC50: 56.1 nM

N[C@H]1C[C@@H]2CCC[C@H]1N2C(=O)c1ccnc(-c2cnn3ccc(-c4ccccc4)nc23)c1
EC50: 74 nM

O=C(NC[C@H]1CCN1)c1ccnc(-c2cnn3ccc(-c4cccs4)nc23)c1
EC50: 126 nM

O=C(NCC1CCCCN1)c1ccnc(-c2cnn3ccc(-c4ccccc4)nc23)c1 (configuration not stated)
EC50: 955 nM

CCN[C@H](C)CNC(=O)c1ccnc(-c2cnn3ccc(-c4ccccc4)nc23)c1
EC50: 73.1 nM

O=C(c1ccnc(-c2cnn3ccc(-c4cccs4)nc23)c1)N1CC2CNC(COC2)C1 (configuration not stated)
EC50: 259 nM

CCN[C@H](C)CNC(=O)c1ccnc(-c2cnn3ccc(-c4cccs4)nc23)c1
EC50: 34.8 nM

CCN(CC)[C@@H](C)CNC(=O)c1cc(N)nc(-c2cnn3ccc(-c4cccs4)nc23)c1
EC50: 10.5 nM

CCN(CC)[C@H](CNC(=O)c1ccnc(-c2cnn3ccc(-c4ccccc4)nc23)c1)COc1ncccn1
EC50: 47.3 nM

C[C@H](N)[C@@H]1CCCCN1C(=O)c1ccnc(-c2cnn3ccc(-c4ccccc4)nc23)c1
EC50: 45.6 nM

CCNC(CC)CNC(=O)c1ccnc(-c2cnn3ccc(-c4ccccc4)nc23)c1 (configuration not stated)
EC50: 46.8 nM

CN(C)c1cc(C(=O)N2CCCC[C@@H]2CN)cc(-c2cnn3ccc(-c4cccs4)nc23)n1
EC50: 49 nM

N[C@@H]1CCC[C@H]1NC(=O)c1ccnc(-c2cnn3ccc(-c4ccccc4)nc23)c1
EC50: 259 nM

CC[C@@]1(CNC(=O)c2ccnc(-c3cnn4ccc(-c5cccs5)nc34)c2)CCCN1
EC50: 129 nM

C[C@@]1(CNC(=O)c2ccnc(-c3cnn4ccc(-c5cccs5)nc34)c2)CCCN1
EC50: 142 nM

CCC(N)CNC(=O)c1ccnc(-c2cnn3ccc(-c4cccs4)nc23)c1 (configuration not stated)
EC50: 22.9 nM

CCNC(CNC(=O)c1ccnc(-c2cnn3ccc(-c4ccccc4)nc23)c1)C(C)C (configuration not stated)
EC50: 107 nM

N[C@H]1CCN(C(=O)c2ccnc(-c3cnn4ccc(-c5ccccc5)nc34)c2)C1
EC50: 200 nM

C[C@@H](CNC(=O)c1ccnc(-c2cnn3ccc(-c4cccs4)nc23)c1)NCC(F)F
EC50: 443 nM and 149 nM

CCN[C@@H](CC)CNC(=O)c1ccnc(-c2cnn3ccc(-c4cccs4)nc23)c1
EC50: 43.3 nM

CN(C)CCNC(=O)c1ccnc(-c2cnn3ccc(-c4cccs4)nc23)c1
EC50: 116 nM

N[C@@H]1CCC[C@@H]1NC(=O)c1ccnc(-c2cnn3ccc(-c4ccccc4)nc23)c1
EC50: 303 nM

CC(C)C[C@@]1(CNC(=O)c2ccnc(-c3cnn4ccc(-c5cccs5)nc34)c2)CCCN1
EC50: 66 nM

CCCNC(CNC(=O)c1ccnc(-c2cnn3ccc(-c4ccccc4)nc23)c1)C(C)C (configuration not stated)
EC50: 42.9 nM

C[C@@H](CNC(=O)c1ccnc(-c2cnn3ccc(-c4cccs4)nc23)c1)NCC(F)(F)F
EC50: 717 nM

O=C(NCC12CCCN1CCC2)c1ccnc(-c2cnn3ccc(-c4cccs4)nc23)c1
EC50: 41.5 nM
